{"source": "patent US7850984B2", "about": "“Protection of the female reproductive system from natural and artificial insults” (The General Hospital Corporation, priority 2000, dated 2010)", "molecules": {"B1": {"name": "human recombinant ASMase: human recombinant acid sphingomyelinase enzyme microinjected into single oocytes (protein, UniProt P17405 47-631, looked up)", "Sphingomyelin …": "LALSDSRVLWAPAEAHPLSPQGHPARLHRIVPRLRDVFGWGNLTCPICKGLFTAINLGLKKEPNVARVGSVAIKLCNLLKIAPPAVCQSIVHLFEDDMVEVWRRSVLSPSEACGLLLGSTCGHWDIFSSWNISLPTVPKPPPKPPSPPAPGAPVSRILFLTDLHWDHDYLEGTDPDCADPLCCRRGSGLPPASRPGAGYWGEYSKCDLPLRTLESLLSGLGPAGPFDMVYWTGDIPAHDVWHQTRQDQLRALTTVTALVRKFLGPVPVYPAVGNHESTPVNSFPPPFIEGNHSSRWLYEAMAKAWEPWLPAEALRTLRIGGFYALSPYPGLRLISLNMNFCSRENFWLLINSTDPAGQLQWLVGELQAAEDRGDKVHIIGHIPPGHCLKSWSWNYYRIVARYENTLAAQFFGHTHVDEFEVFYDEETLSRPLAVAFLAPSATTYIGLNPGYRVYQIDGNYSGSSHVVLDHETYILNLTQANIPGAIPHWQLLYRARETYGLPNTLPTAWHNLVYRMRGDMQLFQTFWFLYHKGHPPSEPCGTPCRLATLCAQLSARADSPALCRHLMPDGSLPEAQSLWPRPLFC"}}, "key": {"oocytes [1]": {"system": "oocytes", "test": "In vitro oocyte culture with or without doxorubicin, apoptosis", "format": "cell-based, mouse", "settings": "200 nM DXR, 24 hours, wild-type versus ASMase-deficient oocytes", "protocol": "In addition to assessments of cellular morphology and caspase activation, some oocytes in each group are processed for DNA cleavage analysis as an endpoint for cell death using the Trevigen Comet Assay kit.\nFemale mice (43 days of age post-partum; Charles River Laboratories, Wilmington, Mass.) are superovulated with 10 IU of equine chorionic gonadotropin (eCG orPMSG) followed by 10 IU of human chorionic gonadotropin (hCG) 48 h later. Mature oocytes are collected from the oviducts 16 h after hCG injection. Cumulus enclosed oocytes are denuded by a 1-min incubation in 80 IU/ml of hyaluronidase, followed by three washes with culture medium. The medium used for all culture experiments is human tubal fluid (Irvine Scientific, Santa Ana, Calif.) supplemented with 0.5% bovine serum albumin (BSA).\nOocytes are cultured in 0.1 ml drops of culture medium (8-10 oocytes/drop) under paraffin oil and incubated with or without DXR (200 nM) and/or fumonisin-B1, sphingosine-1-phosphate or benzyloxycarbonyl-Val-Ala-Asp-fluoromethylketone (zVAD-FMK) for 24 h at 37° C. in a humidified atmosphere of 5% CO2-95% air. […] The percentage of oocytes that go through apoptosis out of the total number of oocytes cultured per drop in each experiment is then determined, and all experiments are independently repeated four to ten times with different mice."}, "oocytes [2]": {"system": "oocytes", "settings": "female mouse oocytes; Perez et al. (1997); cited from earlier work"}, "[3]": {"system": "germ cells of wild-type fetal ovaries (e13.5)", "test": "Fetal ovary culture without hormonal support, germ cell survival", "format": "cell-based, mouse", "settings": "wild-type fetal ovaries, 72 hours in vitro without hormonal support; FB1 5-500 μM; S1P increasing concentrations", "protocol": "To determine the basis of the extensive oocyte hyperplasia in ASMase −/− neonates, fetal ovaries are harvested from wild-type and mutant mice at embryonic day 13.5 (e13.5) for in vitro culture as a model to recapitulate the events surrounding germline death that occurs as a normal component of female gametogenesis. A time-dependent activation of programmed cell death is observed in the germline of wild-type fetal ovaries cultured without hormonal support for up to 72 hours (FIG. 2A). […] These findings indicate that there exists an ovarian-intrinsic cell death defect in the ASMase-deficient mouse, and point to enhanced survival of the developing germline during oogenesis as the mechanism underlying the enlarged oocyte pool seen in mutant females at birth.\nEquivalent levels of in vitro germ cell survival are obtained by either ASMase gene knockout (FIG. 2A) or by S1P treatment (FIG. 2B)."}, "oocytes [4]": {"system": "oocytes", "test": "Microinjection of recombinant protein into single oocytes, apoptosis", "format": "cell-based, mouse", "settings": "wild-type oocytes; ASMase: six picoliters of a 1 mg/ml stock", "protocol": "Human recombinant acid sphingomyelinase is synthesized and purified as described by He et al., Biochim. Biophys. Acta 1432, 251 (1999), incorporated herein by reference in its entirety. Six picoliters of vehicle or of a 1 mg/ml stock of the enzyme are microinjected into single oocytes using a Zeiss Axiovert 135 inverted microscope equipped with Narishige micromanipulators and a PLI-100 pico-injector. Oocytes that survive the microinjection procedure (>75%) are then cultured and assessed for the occurrence of apoptosis. Furthermore, microinjection of human recombinant Bax protein into single oocytes and assessments of apoptosis are made as described by Perez, et al. (1997) id. Microinjection of human recombinant Bax protein into oocytes duplicates the pro-apoptotic effects of both human recombinant ASMase microinjection and anti-cancer drug treatment (FIG. 3E)."}}, "data": [{"molecule": "COc1cccc2c1C(=O)c1c(O)c3c(c(O)c1C2=O)C[C@@](O)(C(=O)CO)C[C@@H]3O[C@H]1C[C@H](N)[C@H](O)[C@H](C)O1", "note": "[DXR, doxorubicin, reference compound]", "values": [{"measurement": "apoptotic event in oocytes", "setting": "oocytes [1]", "result": "elicited in wild-type, but not ASMase-deficient, oocytes"}, {"measurement": "oocyte cell death on in vitro exposure", "setting": "oocytes [2]", "result": "undergo a type of cell death, referred to as apoptosis"}]}, {"molecule": "CCCC[C@@H](C)[C@@H](OC(=O)C[C@@H](CC(=O)O)C(=O)O)[C@H](C[C@@H](C)C[C@H](O)CCCC[C@@H](O)C[C@H](O)[C@H](C)N)OC(=O)C[C@@H](CC(=O)O)C(=O)O", "note": "[FB1, fumonisin-B1, reference compound]", "values": [{"measurement": "germ cell survival / germ cell apoptosis in cultured fetal ovaries", "setting": "[3]", "result": "does not alter survival rates in the female germline"}]}, {"molecule": "human recombinant Bax: human recombinant Bax protein microinjected into single oocytes", "values": [{"measurement": "apoptosis after microinjection versus vehicle-injected oocytes", "setting": "oocytes [4]", "result": "significant (P<0.05) increase in apoptosis"}]}, {"molecule": "B1", "values": [{"measurement": "apoptosis after microinjection versus vehicle-injected oocytes", "setting": "oocytes [4]", "result": "significant (P<0.05) increase in apoptosis"}]}]}
